According to patent US9840478B2 (MERCK SHARP & DOHME CORP., priority 2013, dated 2017):

Test system: HIV-1 (H9IIIB strain)
Assay: Cell-based HIV infection assay using a reporter (Cell-Based), MT4-GFP cells
Settings: Human immunodeficiency virus 1, MT4-GFP cells infected with HIV-1 H9IIIB; 50% normal human serum; mean of at least two independent experiments; read-out: Cell-based IP
Procedure, shortened: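 MT4-GFP cells (HIV LTR-driven GFP) infected 24 h with HIV-1 H9IIIB at low MOI, then washed and plated with compounds in RPMI + 50% normal human serum, 0.4% DMSO final. Green cells counted at 24 and 48 h; R0 = 48 h/24 h ratio, inhibition normalized to DMSO and triple-drug control; IC50 from 4-parameter fit.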

SMILES	IC50
COC(=O)N[C@H](C(=O)Nc1cccc(F)c1CC[C@H]1CNC[C@@H](C)N1S(=O)(=O)c1ccccc1Cl)[C@@H](c1ccc(F)cc1)c1cc(F)cc(F)c1 [Example 232, (βS)-N-[2-(2-{(2S,6R)-1-[(2-chlorophenyl)sulfonyl]-6-methylpiperazin-2-yl}ethyl)-3-fluorophenyl]-β-(3,5-difluorophenyl)-4-fluoro-Nα-(methoxycarbonyl)-L-phenylalaninamide]	190 nM
COC(=O)N[C@H](C(=O)Nc1cccc(F)c1CC[C@H]1CNC[C@H](C)N1S(C)(=O)=O)[C@@H](Cc1ccc(F)cc1)c1ccc(Cl)cc1 [Example 233, (βS)-4-chloro-β-(4-fluorobenzyl)-N-(3-fluoro-2-{2-[(2S,6S)-6-methyl-1-(methylsulfonyl)piperazin-2-yl]ethyl}phenyl)-Nα-(methoxycarbonyl)-L-phenylalaninamide]	330 nM
COC(=O)N[C@H](C(=O)Nc1cccc(F)c1CC[C@H]1CNC[C@H](C)N1S(=O)(=O)c1ccc(OC(F)(F)F)cc1)[C@@H](c1ccc(F)cc1)c1cc(F)cc(F)c1 [Example 234, (βS)-β-(3,5-difluorophenyl)-4-fluoro-N-(3-fluoro-2-{2-[(2S,6S)-6-methyl-1-{[4-(trifluoromethoxy)phenyl]sulfonyl}piperazin-2-yl]ethyl}phenyl)-Nα-(methoxycarbonyl)-L-phenylalaninamide]	49 nM
COc1ccccc1S(=O)(=O)N1[C@@H](CCc2c(F)cncc2NC(=O)[C@@H](N)[C@@H](c2ccc(F)cc2)c2cc(F)cc(F)c2)CNC[C@@H]1C [Example 235, (βS)-β-(3,5-difluorophenyl)-4-fluoro-N-[5-fluoro-4-(2-{(2S,6S)-1-[(2-methoxyphenyl)sulfonyl]-6-methylpiperazin-2-yl}ethyl)pyridin-3-yl]-L-phenylalaninamide]	23 nM
C[C@H]1CNC[C@H](CCc2c(F)cccc2NC(=O)[C@@H](N)[C@@H](c2ccc(Cl)cc2)c2cncc(F)c2)N1S(=O)(=O)c1ccccc1 [Example 236, (βS)-4-chloro-N-(3-fluoro-2-{2-[(2S,6S)-6-methyl-1-(phenylsulfonyl)piperazin-2-yl]ethyl}phenyl)-β-(5-fluoropyridin-3-yl)-L-phenylalaninamide]	8.2 nM
COC(=O)N[C@H](C(=O)Nc1cccc(F)c1CC[C@H]1CNCC(COC(C)C)N1S(=O)(=O)C1CC1)[C@@H](c1ccc(F)cc1)c1cc(F)cc(F)c1 (stereo partly drawn) [Example 237, (βS)-N-[2-(2-{(2S)-1-(cyclopropylsulfonyl)-6-[(1-methylethoxy)methyl]piperazin-2-yl}ethyl)-3-fluorophenyl]-β-(3,5-difluorophenyl)-4-fluoro-Nα-(methoxycarbonyl)-L-phenylalaninamide]	30 nM
COc1ccccc1S(=O)(=O)N1[C@@H](CCc2c(F)cccc2NC(=O)[C@@H](N)[C@@H](c2ccc(F)cc2)c2cc(F)cc(F)c2)CNC[C@@H]1C [Example 238, (βS)-β-(3,5-difluorophenyl)-4-fluoro-N-[3-fluoro-2-(2-{(2S,6S)-1-[(2-methoxyphenyl)sulfonyl]-6-methylpiperazin-2-yl}ethyl)phenyl]-L-phenylalaninamide]	110 nM
COc1ccccc1S(=O)(=O)N1[C@@H](CCc2c(F)cccc2NC(=O)[C@@H](N)[C@@H](c2ccc(F)cc2)c2cc(F)cc(F)c2)CNC[C@H]1C [Example 239, (βS)-β-(3,5-difluorophenyl)-4-fluoro-N-[3-fluoro-2-(2-{(2S,6R)-1-[(2-methoxyphenyl)sulfonyl]-6-methylpiperazin-2-yl}ethyl)phenyl]-L-phenylalaninamide]	130 nM
COC(=O)N[C@H](C(=O)Nc1cccc(F)c1CC[C@H]1CNC[C@H](C)N1S(=O)(=O)c1ccccc1OC)[C@@H](c1ccc(F)cc1)c1cc(F)cc(F)c1 [Example 240, (βS)-β-(3,5-difluorophenyl)-4-fluoro-N-[3-fluoro-2-(2-{(2S,6S)-1-[(2-methoxyphenyl)sulfonyl]-6-methylpiperazin-2-yl}ethyl)phenyl]-Nα-(methoxycarbonyl)-L-phenylalaninamide]	71 nM
COCC1CNC[C@H](CCc2c(F)cccc2NC(=O)[C@@H](N)[C@@H](c2ccc(F)cc2)c2cc(F)cc(F)c2)N1S(=O)(=O)C1CC1 (stereo partly drawn) [Example 241, (βS)-N-(2-{2-[(2S)-1-(cyclopropylsulfonyl)-6-(methoxymethyl)piperazin-2-yl]ethyl}-3-fluorophenyl)-β-(3,5-difluorophenyl)-4-fluoro-L-phenylalaninamide]	39 nM
CC(C)OCC1CNC[C@H](CCc2c(F)cccc2NC(=O)[C@@H](N)[C@H](c2cccc(F)c2)c2cccc(Cl)c2)N1S(C)(=O)=O (stereo partly drawn) [Example 242, (βR)-β-(3-chlorophenyl)-3-fluoro-N-(3-fluoro-2-{2-[(2S)-6-[(1-methylethoxy)methyl]-1-(methylsulfonyl)piperazin-2-yl]ethyl}phenyl)-L-phenylalaninamide]	220 nM
C[C@H]1CNC[C@H](CCc2c(F)cncc2NC(=O)[C@@H](N)[C@@H](c2ccc(F)cc2)c2cc(F)cc(F)c2)N1S(=O)(=O)c1ccc(OC(F)(F)F)cc1 [Example 243, (βS)-β-(3,5-difluorophenyl)-4-fluoro-N-(5-fluoro-4-{2-[(2S,6S)-6-methyl-1-{[4-(trifluoromethoxy)phenyl]sulfonyl}piperazin-2-yl]ethyl}pyridin-3-yl)-L-phenylalaninamide]	17 nM
COc1ccc(S(=O)(=O)N2[C@@H](CCc3c(F)cncc3NC(=O)[C@@H](N)[C@@H](c3ccc(F)cc3)c3cc(F)cc(F)c3)CNC[C@@H]2C)cc1 [Example 244, (βS)-β-(3,5-difluorophenyl)-4-fluoro-N-[5-fluoro-4-(2-{(2S,6S)-1-[(4-methoxyphenyl)sulfonyl]-6-methylpiperazin-2-yl}ethyl)pyridin-3-yl]-L-phenylalaninamide]	5.9 nM
C[C@H]1CNC[C@H](CCc2c(F)cncc2NC(=O)[C@@H](N)[C@@H](c2ccc(F)cc2)c2cc(F)cc(F)c2)N1S(=O)(=O)c1ccccc1Cl [Example 245, (βS)-N-[4-(2-{(2S,6S)-1-[(2-chlorophenyl)sulfonyl]-6-methylpiperazin-2-yl}ethyl)-5-fluoropyridin-3-yl]-β-(3,5-difluorophenyl)-4-fluoro-L-phenylalaninamide]	51 nM
COC(=O)N[C@H](C(=O)Nc1cncc(F)c1CC[C@H]1CNC[C@H](C)N1S(=O)(=O)c1ccc(OC)cc1)[C@@H](c1ccc(F)cc1)c1cc(F)cc(F)c1 [Example 246, (βS)-β-(3,5-difluorophenyl)-4-fluoro-N-[5-fluoro-4-(2-{(2S,6S)-1-[(4-methoxyphenyl)sulfonyl]-6-methylpiperazin-2-yl}ethyl)pyridin-3-yl]-Nα-(methoxycarbonyl)-L-phenylalaninamide]	5.9 nM
COC(=O)N[C@H](C(=O)Nc1cncc(F)c1CC[C@H]1CNC[C@@H](C)N1S(=O)(=O)c1ccc(OC(F)(F)F)cc1)[C@@H](c1ccc(F)cc1)c1cc(F)cc(F)c1 [Example 247, (βS)-β-(3,5-difluorophenyl)-4-fluoro-N-(5-fluoro-4-{2-[(2S,6R)-6-methyl-1-{[4-(trifluoromethoxy)phenyl]sulfonyl}piperazin-2-yl]ethyl}pyridin-3-yl)-Nα-(methoxycarbonyl)-L-phenylalaninamide]	77 nM
COC(=O)N[C@H](C(=O)Nc1cccc(F)c1CC[C@H]1CNC[C@@H](C)N1S(=O)(=O)c1ccc(OC(F)(F)F)cc1)[C@@H](c1ccc(F)cc1)c1cc(F)cc(F)c1 [Example 248, (βS)-β-(3,5-difluorophenyl)-4-fluoro-N-(3-fluoro-2-{2-[(2S,6R)-6-methyl-1-{[4-(trifluoromethoxy)phenyl]sulfonyl}piperazin-2-yl]ethyl}phenyl)-Nα-(methoxycarbonyl)-L-phenylalaninamide]	45 nM
COc1ccc(S(=O)(=O)N2[C@@H](CCc3c(F)cccc3NC(=O)[C@@H](N)[C@@H](c3cccc(Cl)c3)C(C)C)CNC[C@@H]2C)cc1 [Example 249, (βR)-3-chloro-N-[3-fluoro-2-(2-{(2S,6S)-1-[(4-methoxyphenyl)sulfonyl]-6-methylpiperazin-2-yl}ethyl)phenyl]-β-(1-methylethyl)-L-phenylalaninamide]	53 nM
COC(=O)N[C@H](C(=O)Nc1cccc(F)c1CC[C@H]1CNC[C@H](C)N1S(=O)(=O)c1ccc(OC)cc1)[C@@H](c1cccc(Cl)c1)C(C)C [Example 250, (βR)-3-chloro-N-[3-fluoro-2-(2-{(2S,6S)-1-[(4-methoxyphenyl)sulfonyl]-6-methylpiperazin-2-yl}ethyl)phenyl]-Nα-(methoxycarbonyl)-β-(1-methylethyl)-L-phenylalaninamide]	34 nM
COc1ccc(S(=O)(=O)N2[C@@H](CCc3c(F)cccc3NC(=O)[C@@H](N)[C@@H](c3ccc(F)cc3)c3cc(F)cc(F)c3)CNC[C@@H]2C)cc1 [Example 251, (βS)-β-(3,5-difluorophenyl)-4-fluoro-N-[3-fluoro-2-(2-{(2S,6S)-1-[(4-methoxyphenyl)sulfonyl]-6-methylpiperazin-2-yl}ethyl)phenyl]-L-phenylalaninamide]	4.1 nM
COC(=O)N[C@H](C(=O)Nc1cccc(F)c1CC[C@H]1CNC[C@H](C)N1S(=O)(=O)c1ccc(OC)cc1)[C@@H](c1ccc(F)cc1)c1cc(F)cc(F)c1 [Example 252, (βS)-β-(3,5-difluorophenyl)-4-fluoro-N-[3-fluoro-2-(2-{(2S,6S)-1-[(4-methoxyphenyl)sulfonyl]-6-methylpiperazin-2-yl}ethyl)phenyl]-Nα-(methoxycarbonyl)-L-phenylalaninamide]	7.9 nM
COC(=O)N[C@H](C(=O)Nc1cccc(F)c1CC[C@H]1CNC[C@H](C)N1S(=O)(=O)c1ccccc1)[C@H](c1cncc(F)c1)c1cccc(Cl)c1 [Example 253, (βS)-3-chloro-N-(3-fluoro-2-{2-[(2S,6S)-6-methyl-1-(phenylsulfonyl)piperazin-2-yl]ethyl}phenyl)-β-(5-fluoropyridin-3-yl)-Nα-(methoxycarbonyl)-L-phenylalaninamide]	24 nM
